From ChEMBL document CHEMBL4831533, “Novel Substituted 1,6-Naphthyridines as CDK 5 Inhibitors for Treating Kidney Diseases” (ACS Med Chem Lett, 2021)

Target: Cyclin-dependent kinase 5/CDK5 activator 1 (Homo sapiens, UniProt Q00535)
Assay: Inhibition of full length human CDK5 (1 to 292 residues)/p25 expressed in baculovirus expression system using FL peptide 29 as a substrate preincubated for 30 mins followed by substrate addition incubated for 60 mins in the presence of ATP by mobility shift assay

Sequence of Cyclin-dependent kinase 5/CDK5 activator 1 (Q00535 whole entry, the tested form may be a part): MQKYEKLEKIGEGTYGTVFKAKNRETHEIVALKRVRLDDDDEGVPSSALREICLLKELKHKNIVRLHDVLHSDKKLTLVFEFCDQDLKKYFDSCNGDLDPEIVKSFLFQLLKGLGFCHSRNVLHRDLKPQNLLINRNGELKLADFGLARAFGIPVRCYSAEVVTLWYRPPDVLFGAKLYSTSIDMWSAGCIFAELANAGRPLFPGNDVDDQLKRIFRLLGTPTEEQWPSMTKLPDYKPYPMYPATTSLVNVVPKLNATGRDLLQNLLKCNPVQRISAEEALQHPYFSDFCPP
Sequence of Cyclin-dependent kinase 5/CDK5 activator 1 (Q15078 whole entry, further chain, the tested form may be a part): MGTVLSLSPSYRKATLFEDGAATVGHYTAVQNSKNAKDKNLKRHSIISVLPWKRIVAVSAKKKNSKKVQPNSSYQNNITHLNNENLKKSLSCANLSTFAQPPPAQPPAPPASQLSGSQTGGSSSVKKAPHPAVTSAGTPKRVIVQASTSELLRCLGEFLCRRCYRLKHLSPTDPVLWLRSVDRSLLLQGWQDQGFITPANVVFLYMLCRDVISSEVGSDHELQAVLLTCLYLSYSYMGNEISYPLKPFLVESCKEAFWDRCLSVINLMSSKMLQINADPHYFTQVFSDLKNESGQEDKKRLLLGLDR

SMILES | IC50 [nM]
CN1CCC(N(CC(=O)O)c2ccc3cnc(Nc4cccc(S(N)(=O)=O)c4)cc3n2)CC1 | < 10
CCOC(=O)c1cccc(Nc2cc3nc(SC4CCNCC4)ccc3cn2)c1 | < 10
CN1CCC([C@@](C)(O)c2ccc3cnc(Nc4cccc(C(N)=O)c4)cc3n2)CC1 | < 10
CN1CCC(S(=O)(=O)c2ccc3cnc(Nc4ccc(N5CCCS5(=O)=O)cc4)cc3n2)CC1 | < 10
CN1CCC([C@@](C)(O)c2ccc3cnc(Nc4ccc(S(C)(=O)=O)cc4)cc3n2)CC1 | < 10
CN1CCC(C(=O)c2ccc3cnc(Nc4ccc(-n5cccn5)cc4F)cc3n2)CC1 | < 10
